Experimental data taken from publication PMC7211198, “Phase 1b study of a small molecule antagonist of human chemokine (C-C motif) receptor 2 (PF-04136309) in combination with nab-paclitaxel/gemcitabine in first-line treatment of metastatic pancreatic ductal adenocarcinoma” (Investigational New Drugs, 2019).
Marks after values point to notes of the source that are not given here.

Test: Safety and tolerability (TEAEs, SAEs, DLTs, RP2D) in phase Ib study
Assay type: in vivo, human
Excerpt: Safety assessments included collection of adverse events (AEs), serious AEs (SAEs), vital signs and physical examination, electrocardiogram (12-lead), laboratory assessments, including pregnancy test, and verification of concomitant treatments. A patient was considered as DLT-evaluable if the patient experienced a DLT or if otherwise, in the absence of a DLT, the patient received at least 85% of the planned doses of each study drug in the first 28-day cycle. DLTs were defined as any of the following events occurring in the first cycle of treatment (days 1 through 28) and attributed (i.e., judged to be at least possibly related) to the combination of PF-04136309 plus nab-paclitaxel/gemcitabine, where relationship with the combination could not be ruled out. DLTs were hematologic events of grade 4 neutropenia lasting >5 days; febrile neutropenia; grade ≥ 3 neutropenic infection; grade ≥ 3 thrombocytopenia with grade ≥ 2 bleeding; grade 4 thrombocytopenia; and nonhematologic events of grade 3 toxicities. Exceptions included nausea and vomiting responding to prophylaxis and/or treatment and lasting <7 days from each chemotherapy infusion period; diarrhea responding to treatment and lasting <7 days; grade 3 fatigue lasting <7 days; grade 3 QT interval corrected for heart rate prolongation (>500 msec) persisting after correction of any reversible causes; and/or grade 3 aspartate aminotransferase (AST) and/or alanine aminotransferase (ALT) increase lasting ≤7 days. All grade 4 toxicities and a delay of >2 weeks in receiving the next scheduled cycle due to persistent treatment-related toxicities were considered DLTs. AEs meeting DLT criteria in the dose-expansion phase included grade 3 events of diarrhea, hypokalemia, and dysesthesia and grade 4 hypoxia. […] AEs were graded according to the National Cancer Institute Common Terminology Criteria for Adverse Events, version 4.03.

[1] = 750 mg BID + nab-P/Gem, all-causality TEAE
[2] = 750 mg BID + nab-P/Gem, treatment-related SAE
[3] = 500-mg BID group (n = 17), n = 1, considered unrelated to study treatment
[4] = Total N = 21, treatment-related TEAE

## O=C(NCC(=O)N1CC[C@H](N[C@H]2CC[C@@](O)(c3ccc(-c4ncccn4)cn3)CC2)C1)c1cccc(C(F)(F)F)c1 [PF-04136309]
[1]
  Chills, Grade 5: 0 n (%)
  Chills, Total: 2 (50.0) n (%)
  Constipation, Grade 1: 2 (50.0) n (%)
  Constipation, Grade 2: 1 (25.0) n (%)
  Constipation, Grade 3: 0 n (%)
  Constipation, Grade 4: 0 n (%)
  Constipation, Grade 5: 0 n (%)
  Constipation, Total: 3 (75.0) n (%)
  Fatigue, Grade 1: 3 (75.0) n (%)
  Fatigue, Grade 2: 1 (25.0) n (%)
  Fatigue, Grade 3: 0 n (%)
  Fatigue, Grade 4: 0 n (%)
  Fatigue, Grade 5: 0 n (%)
  Fatigue, Total: 4 (100.0) n (%)
  Insomnia, Grade 1: 1 (25.0) n (%)
  Insomnia, Grade 2: 1 (25.0) n (%)
  Insomnia, Grade 3: 0 n (%)
  Insomnia, Grade 4: 0 n (%)
  Insomnia, Grade 5: 0 n (%)
  Insomnia, Total: 2 (50.0) n (%)
  Leukopenia, Grade 1: 0 n (%)
  Leukopenia, Grade 2: 0 n (%)
  Leukopenia, Grade 3: 3 (75.0) n (%)
  Leukopenia, Grade 4: 0 n (%)
  Leukopenia, Grade 5: 0 n (%)
  Leukopenia, Total: 3 (75.0) n (%)
  Malaise, Grade 1: 2 (50.0) n (%)
  Malaise, Grade 2: 0 n (%)
  Malaise, Grade 3: 0 n (%)
  Malaise, Grade 4: 0 n (%)
  Malaise, Grade 5: 0 n (%)
  Malaise, Total: 2 (50.0) n (%)
  Nausea, Grade 1: 3 (75.0) n (%)
  Nausea, Grade 2: 0 n (%)
  Nausea, Grade 3: 1 (25.0) n (%)
  Nausea, Grade 4: 0 n (%)
  Nausea, Grade 5: 0 n (%)
  Nausea, Total: 4 (100.0) n (%)
  Neutropenia, Grade 1: 0 n (%)
  Neutropenia, Grade 2: 0 n (%)
  Neutropenia, Grade 3: 3 (75.0) n (%)
  Neutropenia, Grade 4: 0 n (%)
  Neutropenia, Grade 5: 0 n (%)
  Neutropenia, Total: 3 (75.0) n (%)
  Pain in extremity, Grade 1: 1 (25.0) n (%)
  Pain in extremity, Grade 2: 1 (25.0) n (%)
  Pain in extremity, Grade 3: 0 n (%)
  Pain in extremity, Grade 4: 0 n (%)
  Pain in extremity, Grade 5: 0 n (%)
  Pain in extremity, Total: 2 (50.0) n (%)
  Pyrexia, Grade 1: 1 (25.0) n (%)
  Pyrexia, Grade 2: 1 (25.0) n (%)
  Pyrexia, Grade 3: 0 n (%)
  Pyrexia, Grade 4: 0 n (%)
  Pyrexia, Grade 5: 0 n (%)
  Pyrexia, Total: 2 (50.0) n (%)
  Rash, Grade 1: 2 (50.0) n (%)
  Rash, Grade 2: 1 (25.0) n (%)
  Rash, Grade 3: 0 n (%)
  Rash, Grade 4: 0 n (%)
  Rash, Grade 5: 0 n (%)
  Rash, Total: 3 (75.0) n (%)
  Thrombocytopenia, Grade 1: 1 (25.0) n (%)
  Thrombocytopenia, Grade 2: 1 (25.0) n (%)
  Thrombocytopenia, Grade 3: 0 n (%)
  Thrombocytopenia, Grade 4: 0 n (%)
  Thrombocytopenia, Grade 5: 0 n (%)
  Thrombocytopenia, Total: 2 (50.0) n (%)
  Vomiting, Grade 1: 2 (50.0) n (%)
  Vomiting, Grade 2: 1 (25.0) n (%)
  Vomiting, Grade 3: 0 n (%)
  Vomiting, Grade 4: 0 n (%)
  Vomiting, Grade 5: 0 n (%)
  Vomiting, Total: 3 (75.0) n (%)
[2]
  Any SAE, Grade 1: 0 n (%)
  Any SAE, Grade 2: 1 (25.0) n (%)
  Any SAE, Grade 3: 1 (25.0) n (%)
  Any SAE, Grade 4: 0 n (%)
  Any SAE, Grade 5: 0 n (%)
  Any SAE, Total: 2 (50.0) n (%)
  Cognitive disorder, Grade 1: 0 n (%)
  Cognitive disorder, Grade 2: 0 n (%)
  Cognitive disorder, Grade 3: 1 (25.0) n (%)
  Cognitive disorder, Grade 4: 0 n (%)
  Cognitive disorder, Grade 5: 0 n (%)
  Cognitive disorder, Total: 1 (25.0) n (%)
  Rash, Grade 1: 0 n (%)
  Rash, Grade 2: 1 (25.0) n (%)
  Rash, Grade 3: 0 n (%)
  Rash, Grade 4: 0 n (%)
  Rash, Grade 5: 0 n (%)
  Rash, Total: 1 (25.0) n (%)
14 of the 21 treated patients
  Patients who experienced SAEs: 66.7%
[3]
  Grade 4 TEAE: decreased neutrophil count, patients: 5.9%
  Grade 4 TEAE: decreased white blood cell count, patients: 5.9%
500-mg BID group (n = 17), n = 6
  PF-04136309-related TEAE: rash, patients: 35.3%
750-mg BID group (n = 4), n = 3
  PF-04136309-related TEAE: rash, patients: 75.0%
750-mg BID group, one of four patients, cycle 1 day 7, resolved same day
  DLT events: grade 3 cognitive disorder
[4]
  ALT increase, grade ≥3: 4 (19.0) n (%)
  AST increase, grade ≥3: 4 (19.0) n (%)
  Anemia, grade ≥3: 4 (19.0) n (%)
  Fatigue, grade ≥3: 4 (19.0) n (%)
  Leukopenia, grade ≥3: 5 (23.8) n (%)
  Lymphopenia, grade ≥3: 5 (23.8) n (%)
  Neutropenia, grade ≥3: 5 (23.8) n (%)
Total n = 21, first cycle, 5 DLTs in four patients
  DLT: 4 (19.0)^c n (%)
All in 500-mg BID group, 10 of 11 due to disease under study, one due to grade 5 pneumonia
  Deaths: Eleven
All treated patients
  Changes in laboratory tests consistent with a relationship to study drug: no clinically significant changes
  Changes in vital signs data consistent with a relationship to study drug: no clinically significant changes
In combination with nab-paclitaxel/gemcitabine
  Recommended phase II dose (RP2D): 500 mg BID
In vivo
  Late-onset DLT: Grade 3 pneumonitis
N = 21, combination with nab-paclitaxel/gemcitabine
  Incidence of pulmonary toxicity: 24%
Seven of 21, attributed to at least one of PF-04136309, nab-paclitaxel, gemcitabine
  Patients who experienced treatment-related SAEs: 33.3%
